Measured values published in US20020137152A1, “Fermentation process for epothilones” (priority 2000, published 2002).

Columns and labels:
eukaryotic cells = settings: cited from earlier work; for cytotoxicity relative to epothilones A and B: desoxy counterparts compared with epothilones A and B; for cytotoxic activity against eukaryotic cells: Hofle et al., 1996
[1] = test system: breast and colon tumor cell lines; settings: Hofle et al., 1996; cited from earlier work
[2] = Harris et al., 1999; cited from earlier work
EpoK = target: T1, EpoK (Sorangium cellulosum, UniProt Q9KIZ4); assay: EpoK assay: conversion of epothilone D to epothilone B by recombinant his-tagged EpoK, LC/MS; type: biochemical; settings: 30° C., 67 minutes
T1 construct: His6 (six histidine residues); made in house; host or cells: E. coli BL21(DE3) with pREP4-groELS; plasmids pKOS55-121 (N-terminal his) and pKOS55-129 (C-terminal his) in pET22b
T1 sequence (Q9KIZ4 1-419): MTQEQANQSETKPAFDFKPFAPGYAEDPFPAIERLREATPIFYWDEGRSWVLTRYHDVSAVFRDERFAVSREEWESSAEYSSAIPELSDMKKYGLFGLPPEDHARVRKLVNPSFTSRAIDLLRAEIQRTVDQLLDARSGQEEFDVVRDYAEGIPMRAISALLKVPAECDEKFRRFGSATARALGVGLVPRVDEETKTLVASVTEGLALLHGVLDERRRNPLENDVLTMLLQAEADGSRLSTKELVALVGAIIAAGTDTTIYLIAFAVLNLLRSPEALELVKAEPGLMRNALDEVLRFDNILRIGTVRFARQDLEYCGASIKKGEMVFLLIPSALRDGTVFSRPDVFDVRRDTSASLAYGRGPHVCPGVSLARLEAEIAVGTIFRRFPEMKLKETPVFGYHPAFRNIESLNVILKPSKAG
From the text: This Example describes the construction of E. coli expression vectors for heterologous expression of the Sorangium cellulosum epoK gene. The E. coli produced EpoK enzyme can be used in assays to identify inhibitors for use in the methods of the invention. The epoK gene product was expressed in E. coli as a fusion protein with a polyhistidine tag (his tag). The fusion protein was purified and used to convert epothilone D to epothilone B. This assay can be readily adapted to identify EpoK inhibitors.
Purification of EpoK was performed as follows. Plasmids pKOS55-121 and pKOS55-129 were transformed into BL21(DE3) containing the groELS expressing plasmid pREP4-groELS (Caspers et al., 1994, Cellular and Molecular Biology 40(5):635-644). The strains were inoculated into 250 mL of M9 medium supplemented with 2 mM MgSO4, 1% glucose, 20 mg thiamine, 5 mg FeCl2, 4 mg CaCl2 and 50 mg levulinic acid. The cultures were grown to an OD600 between 0.4 and 0.6, at which point IPTG was added to 1 mM, and the cultures were allowed to grow for an additional two hours. The cells were harvested and frozen at −80° C. The frozen cells were resuspended in 10 ml of buffer 1 (5 mM imidizole, 500 mM NaCl, and 45 mM Tris pH 7.6) and were lysed by sonicating three times for 15 seconds each on setting 8. The cellular debris was pelleted by centrifugation in an SS-34 rotor at 16,000 rpm for 30 minutes. The supernatant was removed and centrifuged again at 16,000 rpm for 30 minutes. The supernatant was loaded onto a 5 mL nickel column (Novagen), after which the column was washed with 50 mL of buffer 1 (Novagen). EpoK was eluted with a gradient from 5 mM to 1M imidizole. Fractions containing EpoK were pooled and dialyzed twice against 1 L of dialysis buffer (45 mM Tris pH7.6, 0.2 mM DTT, 0.1 mM EDTA, and 20% glycerol). Aliquots were frozen in liquid nitrogen and stored at −80° C. The protein preparations were greater than 90% pure.
The EpoK assay was performed as follows. Briefly, reactions consisted of 50 mM Tris (pH7.5), 21 µM spinach ferredoxin, 0.132 units of spinach ferredoxin: NADP^+oxidoreductase, 0.8 units of glucose-6-phosphate dehydrogenase, 1.4 mM NADP, and 7.1 mM glucose-6-phosphate, 100 μM or 200 ,μM epothilone D (a generous gift of S. Danishefsky), and 1.7 ,μM amino terminal his tagged EpoK or 1.6 μM carboxy terminal his-tagged EpoK in a 100 μL volume. The reactions were incubated at 30° C. for 67 minutes and stopped by heating at 90° C. for 2 minutes. The insoluble material was removed by centrifugation, and 50 μL of the supernatant were analyzed by LC/MS. […] In the presence of 200 μM, conversion was 44% and 21%, respectively.

[3] = Chou et al., 1998; cited from earlier work
[4] = test system: Sorangium cellulosum strain So ce 90; assay: Production of epothilones A, B, C and D by So ce 90 fermented in the presence of a P450 inhibitor, HPLC quantitation; type: cell-based; settings: 10 mM metyrapone in production medium, 7 days
Protocol: (§1) To prepare a seed culture, transfer cells from the DSM 6773 ampoule into a 250 mL baffled Erleneyer flask with 38 mm silicone foam closures containing 50 mL of sterile soybean meal. Soybean meal contains potato starch (Product No. S-2004, Sigma), 8 g/L; defatted soybean meal (Type 4890, Archer Daniels Midland), 2 g/L; yeast extract (Product No. BP 1422-500, Fisher Biotech), 2g/L; Iron (III) sodium salt EDTA (Product No. EDFS, Sigma), 0.008 g/L; MgSO4.7H20 (Product No. M-5921, Sigma), 1 g/L; CaCl2.2H20 (Product No. C-3991, Sigma), 1 g/L; glucose (Product No. G-5400, Sigma), 2g/L; HEPES buffer (Product No. H-3375, Sigma), 11.5 g/L. Use deionized water, and adjust pH to 7.4 with 10% KOH. Sterilize the flasks by autoclaving at 121° C. for at least 30 minutes. After autoclaving, add 2-3 drops of antifoam B to prevent foaming. Incubate the culture at 32° C. in a 250 RPM shaker for 4 days. After 4 days, the culture should appear an orange color. Production cultures were prepared by sterilizing 50 mL of sterile soybean meal medium and 1 g of Amberlite XAD-16 absorption resin in a 250 mL baffled Erlenmeyer flask. Metyrapone (Product No. 856525, Sigma) is prepared by reconstituting to a final concentration of 2.5 M with 50:50 (v/v) DMSO:H2O. Metyrapone was added to a final concentration of 5 mM and 10 mM in each flask. 5 mL of the seed culture was inoculated to each flask and incubated at 30° C. in a shaker at 250 RPM for 7 days.
To extract epothilone C and/or D, transfer the culture into a 50 mL centrifuge tube (Product no. 21008-178, VWR Scientific Products). Decant the excess medium in the centrifuge tube without pouring off any of the resin. Wash the XAD-16 resin with 25 mL of H2O and allow the XAD-16 resin to settle by gravity in the tube. Carefully decant the H2O, and add 20 mL of 100% methanol to the tube. Place the centrifuge tube on a shaker at 175 RPM for 20-30 minutes to extract the epothilone products from the resin. Allow the XAD-16 pellets to settle, and transfer 2 mL using a pipette to a HPLC tube (Product nos. C4010-13, C4010-60A, National Scientific Company). Quantitation of epothilones C and D was performed by HPLC analysis with UV-DAD detection at 250 nm. 50 uL of the methanol extract was injected across a 4.6×10 mm guard column (Inertsil, C18 OD 53, 5um) and a 4.6 x 150 mm […] (Inertisil, C18 OD 53, 5 um). The assay method was isocratic, eluting with 60% acetonitrile and 40% water for 18 minutes at a flow rate of 1 ml/min. Under these conditions, epothilone C was detected at 10.3 minutes and epothilone D was detected at 13.0 minutes. The results showing the highest production of epothilones C and D, and the lowest production of epothilones A and B, in the presence of metyrapone and various other inhibitors is shown in FIG. 1. […]

[5] = test system: Sorangium cellulosum strain So ce 90; assay: Effect of metyrapone on growth of So ce 90 (FIG. 2); type: cell-based; settings: metyrapone at 5 mM and 10 mM
Protocol: as §1, with “Production cultures were prepared by sterilizing 50 mL of sterile soybean meal medium and 1 g of Amberlite XAD-16 absorption resin in a 250 mL baffled Erlenmeyer flask. Metyrapone (Product No. 856525, Sigma) is prepared by reconstituting to a final concentration of 2.5 M with 50:50 (v/v) DMSO:H2O. Metyrapone was added to a final concentration of 5 mM and 10 mM in each flask. 5 mL of the seed culture was inoculated to each flask and incubated at 30° C. in a shaker at 250 RPM for 7 days.” left out
To extract epothilone C and/or D, transfer the culture into a 50 mL centrifuge tube (Product no. 21008-178, VWR Scientific Products). […] Quantitation of epothilones C and D was performed by HPLC analysis with UV-DAD detection at 250 nm. […] Under these conditions, epothilone C was detected at 10.3 minutes and epothilone D was detected at 13.0 minutes. […]

## C/C(=C\c1csc(C)n1)[C@@H]1C/C=C\CCC[C@H](C)[C@H](O)[C@@H](C)C(=O)C(C)(C)[C@@H](O)CC(=O)O1 [epothilone C]
Eukaryotic cells
  cytotoxicity relative to epothilones A and B: less cytotoxic

## C/C(=C\c1csc(C)n1)[C@@H]1C[C@@H]2O[C@]2(C)CCC[C@H](C)[C@H](O)[C@@H](C)C(=O)C(C)(C)[C@@H](O)CC(=O)O1 [epothilone B]
[1]
  activity against breast and colon tumor cell lines: noticeable activity and selectivity
Eukaryotic cells
  cytotoxic activity against eukaryotic cells: broad cytotoxic activity

## C/C1=C/C[C@@H](/C(C)=C/c2csc(C)n2)OC(=O)C[C@H](O)C(C)(C)C(=O)[C@H](C)[C@@H](O)[C@@H](C)CCC1 [epothilone D]
[2]
  efficacy among naturally occurring epothilones studied: greatest efficacy
EpoK; 100 μM epothilone D, 1.6 μM carboxy terminal his-tagged EpoK
  conversion of epothilone D to epothilone B: 58%
EpoK; 100 μM epothilone D, 1.7 μM amino terminal his tagged EpoK
  conversion of epothilone D to epothilone B: 82%
EpoK; 200 μM epothilone D, 1.6 μM carboxy terminal his-tagged EpoK
  conversion of epothilone D to epothilone B: 21%
EpoK; 200 μM epothilone D, 1.7 μM amino terminal his tagged EpoK
  conversion of epothilone D to epothilone B: 44%
[3]
  toxicity among naturally occurring epothilones studied: lowest toxicity
Eukaryotic cells
  cytotoxicity relative to epothilones A and B: less cytotoxic

## C/C(=C\c1csc(C)n1)[C@@H]1C[C@@H]2O[C@@H]2CCC[C@H](C)[C@H](O)[C@@H](C)C(=O)C(C)(C)[C@@H](O)CC(=O)O1 [epothilone A]
[1]
  activity against breast and colon tumor cell lines: noticeable activity and selectivity
Eukaryotic cells
  cytotoxic activity against eukaryotic cells: broad cytotoxic activity

## CC(C)(C(=O)c1cccnc1)c1cccnc1 [metyrapone, 2-methyl-1,2-di-3-pyridyl-1-propanone]
[4]; without inhibitor 0.5 mg/L
  epothilone D produced by So ce 90: 0.1 mg/L
[4]; without inhibitor 1.0 mg/L
  epothilone C produced by So ce 90: 0.5 mg/L
[4]; without inhibitor 1.7 mg/L
  epothilone B produced by So ce 90: 0.3 mg/L
[4]; without inhibitor 3.6 mg/L
  epothilone A produced by So ce 90: 0.9 mg/L
[5]
  effect on growth of So ce 90: does not detrimentally inhibit the growth
